Tests used:
Assay in all cases: Large panel kinase profiling
Type in all cases: biochemical
Details in all cases: 1 μM test article, 1 mM ATP
[1] = target: T1, MAPK7/ERK5 (Homo sapiens, UniProt Q13164)
T1 construct: AssayQuant Technologies, Inc. (service provider)
Procedure, shortened: (§1)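 Profiling across the panel relied on the PhosphoSens CSox-Sensor format. A compound concentration of 1 μM and an ATP level of 1 mM were used throughout.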

[2] = target: T2, GRK4 (Homo sapiens, UniProt P32298)
T2 construct: AssayQuant Technologies, Inc. (service provider)
Procedure, shortened: as §1

[3] = target: PRKAA1/AMPK111 (Homo sapiens, UniProt Q13131)
Procedure, shortened: as §1

[4] = target: ERBB4/HER4 (Homo sapiens, UniProt Q15303)
Procedure, shortened: as §1

[5] = target: T3, GSK3A (Homo sapiens, UniProt P49840)
T3 construct: AssayQuant Technologies, Inc. (service provider)
Procedure, shortened: as §1

[6] = target: T4, TYK2(JH1JH2) (Homo sapiens, UniProt P29597)
T4 construct: TYK2(JH1JH2); AssayQuant Technologies, Inc. (contract laboratory that ran the panel)
Procedure, shortened: as §1

[7] = target: PRKAA1/AMPK121 (Homo sapiens, UniProt Q13131)
Procedure, shortened: as §1

[8] = target: FGFR2 (Homo sapiens, UniProt P21802)
Procedure, shortened: as §1

[9] = target: BMP2K/BIKE (Homo sapiens, UniProt Q9NSY1)
Procedure, shortened: as §1

[10] = target: T5, PRKCI/PKCI (Homo sapiens, UniProt P41743)
T5 sequence (P41743 1-596): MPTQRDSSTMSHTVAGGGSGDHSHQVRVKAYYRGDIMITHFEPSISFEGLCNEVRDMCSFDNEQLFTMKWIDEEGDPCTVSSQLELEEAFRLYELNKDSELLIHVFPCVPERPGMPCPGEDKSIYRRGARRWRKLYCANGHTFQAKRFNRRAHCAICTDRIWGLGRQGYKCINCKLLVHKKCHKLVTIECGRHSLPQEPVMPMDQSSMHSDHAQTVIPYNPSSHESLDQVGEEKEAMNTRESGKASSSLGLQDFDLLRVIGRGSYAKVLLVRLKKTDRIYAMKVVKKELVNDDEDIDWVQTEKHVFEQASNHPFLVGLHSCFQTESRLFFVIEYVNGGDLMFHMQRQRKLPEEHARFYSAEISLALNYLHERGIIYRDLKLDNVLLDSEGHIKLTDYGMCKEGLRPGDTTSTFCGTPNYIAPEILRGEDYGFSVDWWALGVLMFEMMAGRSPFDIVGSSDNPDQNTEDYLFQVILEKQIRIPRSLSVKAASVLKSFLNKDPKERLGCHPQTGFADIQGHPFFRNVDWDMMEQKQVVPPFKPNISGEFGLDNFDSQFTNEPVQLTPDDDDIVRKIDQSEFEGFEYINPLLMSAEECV
Procedure, shortened: as §1

[11] = target: T6, CRIK/CIT (Homo sapiens, UniProt O14578)
T6 construct: AssayQuant Technologies, Inc. (ran the panel)
Procedure, shortened: as §1

[12] = target: PLK1 (Homo sapiens, UniProt P53350)
Procedure, shortened: as §1

[13] = target: T7, CDK5/P35 (Homo sapiens, UniProt Q00535)
T7 construct: AssayQuant Technologies, Inc. (ran the panel)
Procedure, shortened: as §1

[14] = target: T8, AXL (Homo sapiens, UniProt P30530)
T8 sequence (P30530 26-894): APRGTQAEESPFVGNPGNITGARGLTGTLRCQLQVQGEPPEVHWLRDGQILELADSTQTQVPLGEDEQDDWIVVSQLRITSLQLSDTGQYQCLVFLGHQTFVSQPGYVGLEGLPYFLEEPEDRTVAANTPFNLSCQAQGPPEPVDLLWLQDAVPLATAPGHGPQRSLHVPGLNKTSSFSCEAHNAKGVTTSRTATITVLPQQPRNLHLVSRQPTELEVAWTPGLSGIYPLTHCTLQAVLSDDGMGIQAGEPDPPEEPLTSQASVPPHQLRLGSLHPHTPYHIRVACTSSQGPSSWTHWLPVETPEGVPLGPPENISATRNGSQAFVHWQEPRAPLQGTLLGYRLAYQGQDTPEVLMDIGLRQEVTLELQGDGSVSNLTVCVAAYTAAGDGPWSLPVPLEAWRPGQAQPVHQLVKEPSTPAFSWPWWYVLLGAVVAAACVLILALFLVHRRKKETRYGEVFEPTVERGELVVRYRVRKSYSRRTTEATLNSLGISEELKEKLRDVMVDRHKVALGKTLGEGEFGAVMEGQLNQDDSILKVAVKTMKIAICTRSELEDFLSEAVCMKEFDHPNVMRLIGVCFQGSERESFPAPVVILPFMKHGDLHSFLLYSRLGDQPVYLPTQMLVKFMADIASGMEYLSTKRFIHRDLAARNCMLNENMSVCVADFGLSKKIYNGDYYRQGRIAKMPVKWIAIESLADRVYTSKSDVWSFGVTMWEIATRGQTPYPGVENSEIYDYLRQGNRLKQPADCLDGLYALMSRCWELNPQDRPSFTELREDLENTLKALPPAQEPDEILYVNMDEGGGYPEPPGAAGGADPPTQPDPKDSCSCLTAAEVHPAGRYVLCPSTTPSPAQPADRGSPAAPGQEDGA
Procedure, shortened: as §1

Chain of PLK1 (P53350 whole entry, species assumed): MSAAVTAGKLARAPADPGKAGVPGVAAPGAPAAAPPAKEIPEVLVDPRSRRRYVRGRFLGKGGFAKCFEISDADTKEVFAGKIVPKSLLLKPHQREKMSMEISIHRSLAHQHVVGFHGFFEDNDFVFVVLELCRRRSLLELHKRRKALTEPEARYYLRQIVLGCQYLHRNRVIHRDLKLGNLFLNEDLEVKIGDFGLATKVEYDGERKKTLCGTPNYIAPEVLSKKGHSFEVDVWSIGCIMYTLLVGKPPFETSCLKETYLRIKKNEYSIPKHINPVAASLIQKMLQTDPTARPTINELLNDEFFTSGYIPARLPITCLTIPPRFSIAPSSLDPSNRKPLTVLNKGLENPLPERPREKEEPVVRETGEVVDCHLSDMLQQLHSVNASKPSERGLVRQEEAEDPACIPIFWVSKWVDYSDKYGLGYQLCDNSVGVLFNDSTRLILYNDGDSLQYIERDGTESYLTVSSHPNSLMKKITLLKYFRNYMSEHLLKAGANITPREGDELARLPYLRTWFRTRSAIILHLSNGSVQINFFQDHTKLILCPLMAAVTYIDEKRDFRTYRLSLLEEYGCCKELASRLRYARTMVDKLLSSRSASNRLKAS
T6 sequence (O14578 whole entry): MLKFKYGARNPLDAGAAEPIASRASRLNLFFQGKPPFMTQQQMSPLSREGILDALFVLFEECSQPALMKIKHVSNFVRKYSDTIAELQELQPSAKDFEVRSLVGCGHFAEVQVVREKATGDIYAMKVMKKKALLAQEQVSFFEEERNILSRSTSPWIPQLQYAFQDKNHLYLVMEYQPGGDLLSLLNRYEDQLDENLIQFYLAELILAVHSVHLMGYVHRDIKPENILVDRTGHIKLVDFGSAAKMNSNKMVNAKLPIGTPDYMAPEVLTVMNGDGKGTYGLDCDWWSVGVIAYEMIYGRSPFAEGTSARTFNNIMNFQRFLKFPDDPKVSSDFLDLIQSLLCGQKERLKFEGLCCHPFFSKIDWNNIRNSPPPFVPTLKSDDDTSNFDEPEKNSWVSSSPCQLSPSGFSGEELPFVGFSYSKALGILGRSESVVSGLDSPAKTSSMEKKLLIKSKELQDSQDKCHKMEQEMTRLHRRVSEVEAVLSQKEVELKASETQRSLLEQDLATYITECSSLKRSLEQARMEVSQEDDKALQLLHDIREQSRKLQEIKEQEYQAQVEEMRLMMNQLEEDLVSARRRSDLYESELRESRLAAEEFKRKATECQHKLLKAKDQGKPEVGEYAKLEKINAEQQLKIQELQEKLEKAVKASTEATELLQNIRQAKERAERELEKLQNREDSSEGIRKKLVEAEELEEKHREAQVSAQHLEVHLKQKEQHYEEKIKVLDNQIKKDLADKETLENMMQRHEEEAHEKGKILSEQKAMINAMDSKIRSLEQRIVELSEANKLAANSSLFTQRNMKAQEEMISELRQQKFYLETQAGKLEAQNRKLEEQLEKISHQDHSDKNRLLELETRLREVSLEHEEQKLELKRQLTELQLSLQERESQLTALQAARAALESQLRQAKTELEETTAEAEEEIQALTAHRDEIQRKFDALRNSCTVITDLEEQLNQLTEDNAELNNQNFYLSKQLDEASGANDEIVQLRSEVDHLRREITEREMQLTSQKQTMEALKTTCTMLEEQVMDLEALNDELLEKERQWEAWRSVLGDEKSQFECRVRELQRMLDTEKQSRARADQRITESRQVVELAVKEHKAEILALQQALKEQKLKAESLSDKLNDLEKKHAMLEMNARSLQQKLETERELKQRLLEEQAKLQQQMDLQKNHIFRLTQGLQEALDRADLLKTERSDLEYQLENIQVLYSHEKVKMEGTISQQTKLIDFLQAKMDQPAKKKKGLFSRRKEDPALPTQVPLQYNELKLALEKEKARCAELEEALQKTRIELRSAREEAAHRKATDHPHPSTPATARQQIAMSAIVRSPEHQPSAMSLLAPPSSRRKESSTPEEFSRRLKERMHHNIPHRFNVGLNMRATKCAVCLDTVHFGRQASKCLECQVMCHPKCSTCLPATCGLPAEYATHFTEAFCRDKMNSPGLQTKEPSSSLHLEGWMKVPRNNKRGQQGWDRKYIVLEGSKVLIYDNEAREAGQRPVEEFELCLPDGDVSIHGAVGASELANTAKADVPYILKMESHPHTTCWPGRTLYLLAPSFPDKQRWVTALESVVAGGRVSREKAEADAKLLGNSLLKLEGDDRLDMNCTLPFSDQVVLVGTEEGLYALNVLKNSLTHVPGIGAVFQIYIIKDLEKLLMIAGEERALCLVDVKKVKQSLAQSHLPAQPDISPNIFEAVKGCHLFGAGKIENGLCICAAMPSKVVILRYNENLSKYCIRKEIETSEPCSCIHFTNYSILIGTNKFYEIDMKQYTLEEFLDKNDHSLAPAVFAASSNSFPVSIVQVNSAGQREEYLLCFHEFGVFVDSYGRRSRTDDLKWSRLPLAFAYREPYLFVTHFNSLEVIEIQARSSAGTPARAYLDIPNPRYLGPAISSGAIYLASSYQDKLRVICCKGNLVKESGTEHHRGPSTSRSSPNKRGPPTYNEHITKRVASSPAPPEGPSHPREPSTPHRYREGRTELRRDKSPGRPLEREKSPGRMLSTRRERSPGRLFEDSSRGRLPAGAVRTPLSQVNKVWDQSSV
T3 sequence (P49840 whole entry, species assumed): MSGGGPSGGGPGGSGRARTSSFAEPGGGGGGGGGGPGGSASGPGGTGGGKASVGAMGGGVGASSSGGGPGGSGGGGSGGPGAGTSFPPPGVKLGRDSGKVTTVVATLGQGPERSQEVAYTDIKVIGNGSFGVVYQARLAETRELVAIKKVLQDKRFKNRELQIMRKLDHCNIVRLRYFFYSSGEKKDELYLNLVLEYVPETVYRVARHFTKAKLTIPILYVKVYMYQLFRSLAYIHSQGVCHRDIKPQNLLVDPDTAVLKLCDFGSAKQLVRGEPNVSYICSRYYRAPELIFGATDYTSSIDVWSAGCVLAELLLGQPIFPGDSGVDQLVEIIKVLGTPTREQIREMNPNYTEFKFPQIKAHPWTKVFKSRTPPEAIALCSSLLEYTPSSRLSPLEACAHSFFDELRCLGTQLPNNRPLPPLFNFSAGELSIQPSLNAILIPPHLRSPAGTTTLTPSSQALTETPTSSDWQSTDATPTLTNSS
T4 sequence (P29597 575-1187 limits assumed, species assumed): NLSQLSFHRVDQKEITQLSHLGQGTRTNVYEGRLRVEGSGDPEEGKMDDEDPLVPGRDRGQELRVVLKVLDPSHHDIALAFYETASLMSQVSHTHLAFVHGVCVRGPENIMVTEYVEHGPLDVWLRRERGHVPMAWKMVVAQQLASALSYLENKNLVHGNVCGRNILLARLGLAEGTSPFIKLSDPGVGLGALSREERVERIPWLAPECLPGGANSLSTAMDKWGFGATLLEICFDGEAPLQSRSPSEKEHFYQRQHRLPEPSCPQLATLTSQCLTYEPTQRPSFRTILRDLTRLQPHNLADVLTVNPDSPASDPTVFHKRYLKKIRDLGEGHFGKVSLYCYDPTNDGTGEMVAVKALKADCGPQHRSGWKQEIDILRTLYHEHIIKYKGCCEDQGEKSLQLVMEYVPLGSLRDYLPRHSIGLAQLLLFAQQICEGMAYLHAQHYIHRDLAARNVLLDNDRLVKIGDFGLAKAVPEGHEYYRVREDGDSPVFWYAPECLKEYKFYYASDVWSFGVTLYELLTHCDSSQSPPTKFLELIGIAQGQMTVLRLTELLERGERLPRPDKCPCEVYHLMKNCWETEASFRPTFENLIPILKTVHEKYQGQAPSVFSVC
Chain of ERBB4/HER4 (Q15303 26-1308): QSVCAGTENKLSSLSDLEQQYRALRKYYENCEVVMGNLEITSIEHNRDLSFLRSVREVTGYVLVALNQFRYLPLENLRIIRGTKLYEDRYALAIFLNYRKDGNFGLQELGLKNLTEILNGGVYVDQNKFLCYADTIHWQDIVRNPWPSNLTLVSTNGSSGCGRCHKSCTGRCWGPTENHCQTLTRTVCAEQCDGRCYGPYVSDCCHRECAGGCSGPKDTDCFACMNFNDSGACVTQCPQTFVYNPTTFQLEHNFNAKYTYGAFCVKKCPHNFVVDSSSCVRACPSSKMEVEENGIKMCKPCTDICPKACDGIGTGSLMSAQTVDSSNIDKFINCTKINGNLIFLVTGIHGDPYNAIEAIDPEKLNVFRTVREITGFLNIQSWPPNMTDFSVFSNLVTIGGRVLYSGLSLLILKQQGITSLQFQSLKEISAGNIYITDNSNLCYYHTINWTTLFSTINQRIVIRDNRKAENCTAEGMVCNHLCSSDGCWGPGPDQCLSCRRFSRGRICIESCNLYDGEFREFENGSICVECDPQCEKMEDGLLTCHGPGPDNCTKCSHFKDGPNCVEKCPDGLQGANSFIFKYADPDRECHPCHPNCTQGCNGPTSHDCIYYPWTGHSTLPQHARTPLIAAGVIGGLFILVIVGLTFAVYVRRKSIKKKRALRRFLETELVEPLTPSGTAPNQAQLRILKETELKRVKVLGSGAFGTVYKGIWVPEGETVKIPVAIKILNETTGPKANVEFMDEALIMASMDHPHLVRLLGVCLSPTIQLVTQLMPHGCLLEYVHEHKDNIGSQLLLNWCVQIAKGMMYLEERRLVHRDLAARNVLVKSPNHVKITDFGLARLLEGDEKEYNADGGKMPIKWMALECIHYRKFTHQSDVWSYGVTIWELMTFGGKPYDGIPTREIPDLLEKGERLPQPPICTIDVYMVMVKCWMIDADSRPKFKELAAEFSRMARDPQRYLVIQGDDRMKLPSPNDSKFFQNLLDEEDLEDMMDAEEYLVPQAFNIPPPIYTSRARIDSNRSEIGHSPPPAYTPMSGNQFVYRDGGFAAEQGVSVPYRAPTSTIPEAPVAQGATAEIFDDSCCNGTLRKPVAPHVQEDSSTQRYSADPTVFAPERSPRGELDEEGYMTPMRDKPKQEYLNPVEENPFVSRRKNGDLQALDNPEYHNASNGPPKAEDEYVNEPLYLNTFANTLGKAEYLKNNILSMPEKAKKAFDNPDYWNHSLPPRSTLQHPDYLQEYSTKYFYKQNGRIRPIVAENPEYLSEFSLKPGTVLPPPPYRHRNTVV

Structure (SMILES) | inhibition at 1 µM [1] | inhibition at 1 µM [2] | inhibition at 1 µM [3] | inhibition at 1 µM [4] | inhibition at 1 µM [5] | inhibition at 1 µM [6] | inhibition at 1 µM [7] | inhibition at 1 µM [8] | inhibition at 1 µM [9] | inhibition at 1 µM [10] | inhibition at 1 µM [11] | inhibition at 1 µM [12] | inhibition at 1 µM [13] | inhibition at 1 µM [14]
C=CC(=O)N1CCCC(c2c(F)cc(C(N)=O)c3[nH]c4c(c23)CCCCC4)C1 (single isomer, unassigned) [Compound 5-6] | -0.7% | 3.4% | -13.5% | -19.7% | 2.9% | 18.9% | -7.9% | 17.7% | -18.6% | -0.6% | -9.9% | -6.3% | -13.2% | -20.3%
C=CC(=O)N1CCC[C@@H](c2c(F)cc(C(N)=O)c3[nH]c4c(c23)CC2(CC4)CC2)C1 [Compound 6-2, (S)-5-(1-acryloylpiperidin-3-yl)-6-fluoro-1,2,4,9-tetrahydrospiro[carbazole-3,1′-cyclopropane]-8-carboxamide] | 9.4% | -53% | 13.2% | 2.4% | -5.1% | -27.1% | 31.3% | -15.3% | -12.3% | 9% | 9.1% | -4.3% | -37.5% | 1.5%
C=CC(=O)N1CCC[C@@H](c2c(F)cc(C(N)=O)c3[nH]c4c(c23)CCC4)C1 [Compound 10-2, (S)-8-(1-acryloylpiperidin-3-yl)-7-fluoro-1,2,3,4-tetrahydrocyclo-penta[b]indole-5-carboxamide] | -4.3% | -36.1% | 2.2% | 17.1% | -37.7% | 28.6% | 34.2% | -3.5% | -6.6% | -3.3% | 11.1% | 13.8% | 2.9% | -1.7%
